Data: ChEMBL document CHEMBL1201862, “PubChem BioAssay data set” (2004)
Active and inactive are the calls of the source. Rule as the data show it: actives have a measured IC50 and inactives only a lower limit.

Key:
Format in all cases: functional
Caspase-3 = biological target: T1, Caspase-3 (Homo sapiens, UniProt P42574);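 also: Dose-response selectivity test against caspase-3 for candidate inhibitors of sentrin-specific proteases (SENPs)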
T1 sequence (P42574 whole entry): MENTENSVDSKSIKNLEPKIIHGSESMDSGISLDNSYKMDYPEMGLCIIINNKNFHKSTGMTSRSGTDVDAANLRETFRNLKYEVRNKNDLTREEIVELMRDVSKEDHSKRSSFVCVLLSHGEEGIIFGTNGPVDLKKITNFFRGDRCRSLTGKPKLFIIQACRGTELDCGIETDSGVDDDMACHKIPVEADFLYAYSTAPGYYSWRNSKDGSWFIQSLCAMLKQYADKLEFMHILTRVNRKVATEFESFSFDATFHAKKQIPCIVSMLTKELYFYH

[1] = biological target: T2, Sentrin-specific protease 6 (Homo sapiens, UniProt Q9GZR1);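 also: Luminescence-based dose-response confirmatory assay of SENP6 inhibition, following up an ultra-high-throughput screen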
T2 sequence (Q9GZR1 whole entry): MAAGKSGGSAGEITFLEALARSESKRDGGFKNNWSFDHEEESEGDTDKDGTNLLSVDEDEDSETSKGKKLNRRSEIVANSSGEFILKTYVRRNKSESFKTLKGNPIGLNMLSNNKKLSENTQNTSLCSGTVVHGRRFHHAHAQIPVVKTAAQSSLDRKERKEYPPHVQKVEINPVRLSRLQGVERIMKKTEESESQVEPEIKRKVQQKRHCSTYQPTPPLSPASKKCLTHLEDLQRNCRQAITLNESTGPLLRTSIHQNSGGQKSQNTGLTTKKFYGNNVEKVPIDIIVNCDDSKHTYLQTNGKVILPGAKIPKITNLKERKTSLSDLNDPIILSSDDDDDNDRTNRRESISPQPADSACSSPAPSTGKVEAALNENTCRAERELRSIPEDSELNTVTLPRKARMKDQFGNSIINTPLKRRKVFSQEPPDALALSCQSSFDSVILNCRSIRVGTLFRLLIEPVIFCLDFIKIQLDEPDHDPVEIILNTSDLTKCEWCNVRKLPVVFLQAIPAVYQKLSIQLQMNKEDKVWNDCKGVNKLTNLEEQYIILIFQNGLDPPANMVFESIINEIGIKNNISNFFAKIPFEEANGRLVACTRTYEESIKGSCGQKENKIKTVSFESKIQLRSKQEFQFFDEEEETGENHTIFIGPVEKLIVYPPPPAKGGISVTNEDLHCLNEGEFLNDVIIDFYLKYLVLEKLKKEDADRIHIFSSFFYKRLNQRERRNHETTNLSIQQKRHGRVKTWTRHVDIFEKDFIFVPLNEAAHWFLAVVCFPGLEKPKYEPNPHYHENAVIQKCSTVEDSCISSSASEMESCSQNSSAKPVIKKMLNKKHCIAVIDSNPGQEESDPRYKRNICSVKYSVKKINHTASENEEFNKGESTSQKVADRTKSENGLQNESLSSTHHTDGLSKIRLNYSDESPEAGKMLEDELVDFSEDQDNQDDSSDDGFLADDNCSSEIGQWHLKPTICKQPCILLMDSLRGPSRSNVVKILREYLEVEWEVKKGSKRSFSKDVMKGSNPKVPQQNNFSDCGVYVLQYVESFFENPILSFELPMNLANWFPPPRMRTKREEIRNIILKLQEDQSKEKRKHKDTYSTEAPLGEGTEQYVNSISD

[2] = biological target: T3, Sentrin-specific protease 8 (Homo sapiens, UniProt Q96LD8);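 also: luminescence read-out of SENP8 inhibition, dose-response confirmation following an ultra-high-throughput screen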
T3 sequence (Q96LD8 whole entry): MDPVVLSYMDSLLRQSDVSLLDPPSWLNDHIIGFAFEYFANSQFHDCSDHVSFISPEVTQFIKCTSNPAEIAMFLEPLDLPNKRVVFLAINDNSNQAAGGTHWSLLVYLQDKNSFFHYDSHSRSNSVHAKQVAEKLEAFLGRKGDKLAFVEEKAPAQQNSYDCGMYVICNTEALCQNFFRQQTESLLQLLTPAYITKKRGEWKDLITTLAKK

[3] = biological target: T4, Apoptotic protease-activating factor 1 (Homo sapiens, UniProt O14727)
T4 sequence (O14727 whole entry): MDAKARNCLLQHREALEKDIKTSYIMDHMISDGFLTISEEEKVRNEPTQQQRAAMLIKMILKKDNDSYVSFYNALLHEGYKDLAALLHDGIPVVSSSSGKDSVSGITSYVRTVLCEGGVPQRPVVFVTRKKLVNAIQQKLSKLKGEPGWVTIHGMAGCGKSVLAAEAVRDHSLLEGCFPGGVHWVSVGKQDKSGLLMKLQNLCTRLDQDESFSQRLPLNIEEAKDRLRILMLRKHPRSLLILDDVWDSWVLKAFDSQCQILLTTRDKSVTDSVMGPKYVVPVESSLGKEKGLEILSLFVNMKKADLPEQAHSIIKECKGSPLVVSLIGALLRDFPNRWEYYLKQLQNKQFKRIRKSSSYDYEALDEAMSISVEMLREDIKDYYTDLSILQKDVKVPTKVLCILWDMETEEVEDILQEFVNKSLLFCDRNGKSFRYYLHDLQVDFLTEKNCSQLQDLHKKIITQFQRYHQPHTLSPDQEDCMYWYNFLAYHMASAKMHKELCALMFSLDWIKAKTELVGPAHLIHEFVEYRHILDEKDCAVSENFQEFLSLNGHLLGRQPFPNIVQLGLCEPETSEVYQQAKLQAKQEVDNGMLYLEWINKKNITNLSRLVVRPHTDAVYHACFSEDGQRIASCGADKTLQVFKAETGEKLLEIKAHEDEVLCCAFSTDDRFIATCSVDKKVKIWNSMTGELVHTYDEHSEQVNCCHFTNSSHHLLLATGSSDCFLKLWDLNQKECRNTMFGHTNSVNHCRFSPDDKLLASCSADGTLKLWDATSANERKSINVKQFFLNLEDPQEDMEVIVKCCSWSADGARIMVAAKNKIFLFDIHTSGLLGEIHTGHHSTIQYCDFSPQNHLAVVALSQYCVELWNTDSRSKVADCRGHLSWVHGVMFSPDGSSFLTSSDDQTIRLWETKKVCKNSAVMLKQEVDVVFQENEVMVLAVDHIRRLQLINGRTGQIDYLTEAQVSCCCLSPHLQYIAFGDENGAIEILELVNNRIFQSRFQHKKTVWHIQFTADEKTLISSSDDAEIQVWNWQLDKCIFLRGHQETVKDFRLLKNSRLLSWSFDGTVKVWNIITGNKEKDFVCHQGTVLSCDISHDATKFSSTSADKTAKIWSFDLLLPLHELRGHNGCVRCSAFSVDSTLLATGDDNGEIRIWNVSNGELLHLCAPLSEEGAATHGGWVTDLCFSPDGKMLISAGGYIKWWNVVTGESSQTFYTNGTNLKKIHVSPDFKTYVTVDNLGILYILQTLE

Measured: IC50

CC(C)N(C(=O)Nc1ccc2nsnc2c1)C(C)C
active: Caspase-3 5.81 µM | [1] 2.39 µM | [2] 2.41 µM | [3] 6.61 µM

CC(C)n1cnc2c(NCc3ccccc3)cc(OCC3CCN(C)CC3)cc21
active: Caspase-3 7.82 µM | [1] 3.95 µM | [2] 4.97 µM | [3] 6.63 µM

NS(=O)(=O)c1ccc(NC2=CC(=O)C(=O)c3ccccc32)cc1
active: Caspase-3 9.75 µM | [1] 2.89 µM | [2] 4.96 µM | [3] 2.08 µM
